Where “and” joins values, the source holds several entries; their conditions need not be identical. Equal entries are not always repeated.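 Where inhibition never reached the appropriate level, the endpoint shown equals the highest concentration tested. Otherwise, values were interpolated linearly from a five-concentration, 48-hour dose response in 96-well plates. Abbreviation: GI50, concentration required for 50% inhibition of growth. TGI: total growth inhibition.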
Assays:
Test in all cases: inhibition of tumour cell growth, NCI panel, 48 h
[1] = tested on: OVCAR-3 ovarian
[2] = tested on: SW-620 colon
[3] = tested on: OVCAR-5 ovarian
[4] = tested on: OVCAR-8 ovarian
[5] = tested on: SK-MEL-2 melanoma
[6] = tested on: HCT-116 colon
[7] = tested on: HT29 colon
[8] = tested on: HOP-92 NSCLC
[9] = tested on: UO-31 renal
[10] = tested on: NCI/ADR-RES ovarian

| Structure (SMILES) | GI50 [1] | TGI [1] | GI50 [2] | TGI [2] | GI50 [3] | TGI [3] | GI50 [4] | TGI [4] | GI50 [5] | TGI [5] | GI50 [6] | TGI [6] | GI50 [7] | TGI [7] | GI50 [8] | TGI [8] | GI50 [9] | TGI [9] | GI50 [10] | TGI [10] |
| --- | --- | --- | --- | --- | --- | --- | --- | --- | --- | --- | --- | --- | --- | --- | --- | --- | --- | --- | --- | --- |
| CCCCCCCCCCCCOC1C(C(COC2OC(C(O)CO)C3OC(C)(C)OC23)OC(=O)Nc2ccc([N+](=O)[O-])cc2)OC2OC(C)(C)OC21 (centres undefined) | 1650 nM | 3140 nM | 1790 nM | 3330 nM | 5410 nM | 19100 nM | 3590 nM | 14500 nM | 2090 nM | 5090 nM | 1770 nM | 3450 nM | 2570 nM | 7940 nM | 3820 nM | 14700 nM | 3620 nM | 12900 nM | 12300 nM | 26500 nM |
| CC1SC(c2cccc(Oc3ccccc3)c2)N(CCc2cccs2)C1=O (centres undefined) | 1080 nM | 2300 nM | 1400 nM | 3000 nM | 1940 nM | 5890 nM | 1490 nM | 5060 nM | 1030 nM | 2310 nM | 457 nM | 1760 nM | 1080 nM | 2930 nM | 486 nM | 1860 nM | 469 nM | 1900 nM | 708 nM | 3010 nM |
| Cn1c(N)c(N=Nc2ccc(S(N)(=O)=O)cc2)c(=O)n(C)c1=O |  | > 100000 nM |  | > 100000 nM |  | > 100000 nM |  | > 100000 nM |  | > 100000 nM |  | > 100000 nM |  | > 100000 nM |  | > 100000 nM |  | > 100000 nM |  | > 100000 nM |
| CN1CCN(Cc2ccc(NC(=O)c3cncc(C#Cc4c(N)ncc5ccc(F)cc45)c3)cc2C(F)(F)F)CC1 | 4070 nM | 16500 nM | 206 nM | 1130 nM | 524 nM | 1270 nM | 1760 nM | 8030 nM | 479 nM | 2550 nM | 211 nM | 1370 nM | 126 nM | 789 nM | 28.5 nM | 322 nM | 688 nM | 1500 nM | 1890 nM | 5830 nM |
| COc1ccc(-c2nccn2-c2cc(OC)c(OC)c(OC)c2)cc1 | 1070 nM |  | 1340 nM | > 100000 nM | 10800 nM | > 79400 nM | 12000 nM | > 100000 nM | 36100 nM | > 100000 nM | 1900 nM | > 100000 nM | 1050 nM | > 46200 nM | 7010 nM | > 100000 nM | 9380 nM | > 93000 nM | 1170 nM | 22200 nM |
| C[CH2][Ge]1([CH2]C)[CH2]CC2(CCN(CCCN(C)C)C2)C[CH2]1 | 2150 nM and 2810 nM | 4990 nM and 6870 nM | 1460 nM and 1650 nM | 2890 nM and 2310 nM | 1840 nM and 2450 nM | 3800 nM and 5190 nM | 1700 nM and 1250 nM | 4050 nM and 1730 nM | 616 nM | 1320 nM | 1450 nM | 2790 nM and 1000 nM | 400 nM and 2240 nM | 1590 nM and 6050 nM | 201 nM and 1000 nM | 1650 nM and 1340 nM | 1220 nM and 1910 nM | 2480 nM and 3680 nM | 1830 nM and 5510 nM | 4580 nM and 13400 nM |

Source: PubChem BioAssay (NCI)
